The NIST ThermoML archive (doi:10.1016/j.fluid.2008.06.007)
Numbers after ± are expanded uncertainties.

Conditions: Liquid, Vibrating tube method

CCCCCO [pentan-1-ol]
mass density [kg/m3]
Conditions | 293.15 K | 303.15 K | 313.15 K | 323.15 K | 333.15 K | 343.15 K
100 kPa | 814.7 ± 1 | 807.3 ± 1 | 799.8 ± 1.1 | 792.5 ± 1.1 | 784.4 ± 1.1 | 776.5 ± 1.1
10000 kPa | 821.1 ± 1 | 814.4 ± 1.1 | 807.4 ± 1.1 | 800.3 ± 1.1 | 792.7 ± 1.1 | 785.2 ± 1.1
20000 kPa | 827.3 ± 1.1 | 820.7 ± 1.1 | 814.1 ± 1.1 | 807.3 ± 1.1 | 800.1 ± 1.1 | 792.9 ± 1.1
30000 kPa | 833.2 ± 1.1 | 826.7 ± 1.1 | 820.2 ± 1.1 | 813.7 ± 1.1 | 806.8 ± 1.1 | 799.9 ± 1.1
40000 kPa | 838.6 ± 1.1 | 832.2 ± 1.1 | 826 ± 1.1 | 819.8 ± 1.1 | 813.1 ± 1.1 | 806.6 ± 1.1
50000 kPa | 843.6 ± 1.1 | 837.5 ± 1.1 | 831.5 ± 1.1 | 825.4 ± 1.1 | 818.9 ± 1.1 | 812.6 ± 1.1
60000 kPa | 848.5 ± 1.1 | 842.4 ± 1.1 | 836.6 ± 1.1 | 830.7 ± 1.1 | 824.4 ± 1.1 | 818.3 ± 1.1
70000 kPa | 853.1 ± 1.1 | 847 ± 1.1 | 841.4 ± 1.1 | 835.7 ± 1.1 | 829.7 ± 1.2 | 823.7 ± 1.2
80000 kPa | 857.4 ± 1.1 | 851.6 ± 1.1 | 846.1 ± 1.2 | 840.4 ± 1.2 | 834.6 ± 1.2 | 828.7 ± 1.2
90000 kPa | 861.7 ± 1.2 | 855.8 ± 1.2 | 850.5 ± 1.2 | 845 ± 1.2 | 839.2 ± 1.2 | 833.5 ± 1.2
100000 kPa | 865.8 ± 1.2 | 860.1 ± 1.2 | 854.8 ± 1.2 | 849.3 ± 1.2 | 843.7 ± 1.2 | 838.2 ± 1.2
110000 kPa | 869.6 ± 1.2 | 864.1 ± 1.2 | 858.9 ± 1.2 | 853.6 ± 1.2 | 848 ± 1.2 | 842.5 ± 1.3
120000 kPa | 873.2 ± 1.2 | 868 ± 1.2 | 862.8 ± 1.2 | 857.6 ± 1.2 | 852.1 ± 1.3 | 846.8 ± 1.3
130000 kPa | 876.9 ± 1.2 | 871.7 ± 1.2 | 866.6 ± 1.2 | 861.5 ± 1.3 | 856 ± 1.3 | 850.9 ± 1.3
140000 kPa | 880.3 ± 1.2 | 875.2 ± 1.2 | 870.2 ± 1.3 | 865.3 ± 1.3 | 860 ± 1.3 | 854.8 ± 1.3
